In brackets after ≈: the same amount, converted by molar mass.
Legend:
GT3/pLYSC1 strain = test: Growth of GT3/pLYSC1 on M9 media containing L-lysine or AEC; format: cell-based, E. coli; conditions: for Growth of GT3/pLYSC1: M9 agar
Method: (§1) A transformed strain obtained by introducing pLYSC1 into the AK completely deficient strain, E. coli GT3 was designated as GT3/pLYSC1, and a transformed strain obtained by introducing pLYSC2 into the E. coli GT3 was designated as GT3/pLYSC2. A considerable amount of L-lysine was added to the minimal medium M9, and the GT3/pLYSC1 strain and the GT3/pLYSC2 strain were each cultivated. Both of the GT3/pLYSC1 strain and the GT3/pLYSC2 strain harbor plasmids containing the wild type lysC, in which AKIII encoded by lysC on the plasmids is a sole AK. The wild type AKIII as the sole AK is inhibited by L-lysine in the presence of a considerable amount of L-lysine.
(§2) The GT3/pLYSC1 strain and the GT3/pLYSC2 strain were cultivated on M9 agar plate media containing various concentrations of L-lysine or AEC, respectively. Growth inhibitory concentrations by L-lysine and AEC were examined, and a selection condition was investigated for a strain harboring a plasmid containing lysC*.
(§3) In this table, + indicates growth of transformant, ± indicates a little growth, and - indicates no growth.

AKIII [1] = molecular target: T1, AKIII (Escherichia coli, UniProt P08660); test: Enzyme activity of AKIII and inhibition by L-lysine (cell-free extract); format: biochemical, E. coli
T1 construct: made in house; host or cells: E. coli GT3 (AKI, II, III deficient) transformed with pLYSC1 or its mutant plasmids; cell-free extract, ammonium sulfate pellet redissolved
Description: (§4) No. 24, No. 43, No. 48, No. 60, No. 80, No. 117, No. 126, No. 149, No. 150, No. 156, No. 158, No. 167, No. 169 and No. 172 were selected as representative strains of the aforementioned 14 groups. Mutant plasmids derived from pLYSC1 were recovered from each of them, and designated as pLYSC1*24, pLYSC1*43, pLYSC1*48, pLYSC1*60, pLYSC1*80, pLYSC1*117, pLYSC1*126, pLYSC1*149, pLYSC1*150, pLYSC1*156, pLYSC1*158, pLYSC1*167, pLYSC1*169 and pLYSC1*172, respectively. An AK completely deficient strain GT3 was transformed with them and the wild type pLYSC1. A cell-free extract was prepared from each of transformed strains, and the enzyme activity of AKIII was measured.
(§5) The cell-free extract (crude enzyme solution) was prepared as follows. A transformed strain was cultivated in a 2 x TY medium, and collected at an OD660 of about 0.8. Cells were washed with 0.02 M KH2 PO4 (pH 6.75)-0.03 M β-mercaptoethanol under a condition of 0° C., and the cells were disrupted by sonication (0° C., 100 W, 30 minutes×4). A disrupted cell solution was centrifuged at 33 krpm for 1 hour under a condition of 0° C. to obtain a supernatant to which ammonium sulfate was added to give 80% saturation. After centrifugation, a pellet was dissolved in 0.02 M KH2 PO4 (pH 6.75)-0.03 M β-mercaptoethanol, and stored at 0° C. overnight.
(§6) The enzyme activity of AKIII was measured in accordance with a method of Stadtman et al. (Stadtman, E. R., Cohen, G. N., LeBras, G., and Robichon-Szulmajster, H., J. Biol. Chem., 236, 2033 (1961)). Namely, a reaction solution having the following composition was incubated at 27° C. for 45 minutes, and an FeCl3 solution (2.8 N HCl 0.4 ml+12% TCA 0.4 ml+5% FeCl3 ·6H2 O/0.1 N HCl 0.7 ml) was added thereto to develop a color, and it was centrifuged followed by measurement of absorbance of a supernatant at 540 nm. The activity was indicated by an amount of hydroxamic acid generated per minute (1 U=1 μmol/min). The molar absorption coefficient was 600. Potassium aspartate was removed from the reaction solution to be used as a blank.
(§7) In measurement of the enzyme activity of AK, various concentrations of L-lysine were added to the enzyme reaction solution and the degree of inhibition by L-lysine was examined.
(§8) On the contrary, although the mutant AKIII's obtained this time had various degrees of desensitization, inhibition by L-lysine was desensitized in all of 14 species. […] The specific activity based on total protein, which might be affected by growth situations of cell and preparation of samples, was equal to or more than that of the wild type in almost all cases, and there was little problem of decrease in activity due to the introduction of mutation (Table 3). According to this fact, it was expected that an active center of AKIII was independent from a regulatory site by L-lysine with each other. In Table 3, the inhibition desensitization degree (%) refers to an AK activity in the presence of 100 mM of L-lysine compared with an AK activity in the absence of L-lysine in the reaction solution. The heat stability (%) refers to a ratio of activity maintenance after a treatment at 55° C. for 1.5 hour.

GT3/pLYSC2 strain = test: Growth of GT3/pLYSC2 on M9 media containing L-lysine or AEC; format: cell-based, E. coli
Method: as §1, §2, §3

AKIII [2] = test: Heat stability of AKIII in vitro; format: biochemical, E. coli; conditions: ratio of activity maintenance after treatment at 55° C. for 1.5 hour
Description: as §8
Subsequently, the heat stability of the mutant enzymes was examined. When it is intended that an enzyme is improved to increase its activity, it is important that a created enzyme is maintained stably in cells. […]
Judging from results of investigation on the inactivation temperature of AKIII under various conditions, the ratio of activity maintenance after a treatment at 55° C. for 90 minutes was measured. […]

AKIII [3] = test: Enzyme activity of AKIII and inhibition by L-lysine (cell-free extract); format: biochemical, E. coli
Description: as §4, §5, §6, §7, §8

NCCCC[C@H](N)C(=O)O [L-lysine]
MIC (GT3/pLYSC1 strain; Escherichia coli, GT3, read-out: Allotment of addition in which growth was completely suppressed): 200 µM (≈ 29.2 µg/mL) | Growth in minimal medium M9 with a considerable amount of L-lysine (GT3/pLYSC1 strain; GT3/pLYSC1): suppressed in growth | Growth of GT3/pLYSC1 (GT3/pLYSC1 strain; L-lysine 0.2 mM): - | Growth of GT3/pLYSC1 (GT3/pLYSC1 strain; L-lysine 0.4 mM): - | Growth of GT3/pLYSC1 (GT3/pLYSC1 strain; L-lysine 0.8 mM): - | Growth of GT3/pLYSC1 (GT3/pLYSC1 strain; L-lysine 1.5 mM): - | Growth of GT3/pLYSC1 (GT3/pLYSC1 strain; L-lysine 3 mM): - | Growth of GT3/pLYSC1 (GT3/pLYSC1 strain; L-lysine 6 mM): - | Growth of GT3/pLYSC1 (GT3/pLYSC1 strain; L-lysine 12 mM): - | Growth of GT3/pLYSC1 (GT3/pLYSC1 strain; L-lysine 25 mM): - | Growth of GT3/pLYSC1 (GT3/pLYSC1 strain; L-lysine 50 mM): - | Growth of GT3/pLYSC1 (GT3/pLYSC1 strain; L-lysine 100 mM): - | Growth of GT3/pLYSC1 (GT3/pLYSC1 strain; L-lysine 200 mM): - | IC50 (AKIII [1]): ~450 µM | inhibition at 5000 µM (AKIII [1]; read-out: Inhibition of AKIII): ~100% | Growth in minimal medium M9 with a considerable amount of L-lysine (GT3/pLYSC2 strain; GT3/pLYSC2): suppressed in growth | Allotment of addition up to which growth was not suppressed (GT3/pLYSC2 strain; GT3/pLYSC2 strain, M9 agar): 100 mM | Growth of GT3/pLYSC2 (GT3/pLYSC2 strain; M9 agar, L-lysine 0.2 mM): + | Growth of GT3/pLYSC2 (GT3/pLYSC2 strain; M9 agar, L-lysine 0.4 mM): + | Growth of GT3/pLYSC2 (GT3/pLYSC2 strain; M9 agar, L-lysine 0.8 mM): + | Growth of GT3/pLYSC2 (GT3/pLYSC2 strain; M9 agar, L-lysine 1.5 mM): + | Growth of GT3/pLYSC2 (GT3/pLYSC2 strain; M9 agar, L-lysine 3 mM): + | Growth of GT3/pLYSC2 (GT3/pLYSC2 strain; M9 agar, L-lysine 6 mM): + | Growth of GT3/pLYSC2 (GT3/pLYSC2 strain; M9 agar, L-lysine 12 mM): + | Growth of GT3/pLYSC2 (GT3/pLYSC2 strain; M9 agar, L-lysine 25 mM): + | Growth of GT3/pLYSC2 (GT3/pLYSC2 strain; M9 agar, L-lysine 50 mM): + | Growth of GT3/pLYSC2 (GT3/pLYSC2 strain; M9 agar, L-lysine 100 mM): ± | Growth of GT3/pLYSC2 (GT3/pLYSC2 strain; M9 agar, L-lysine 200 mM): -

B1: Wild type: wild type aspartokinase III of E. coli encoded by lysC, SEQ ID NO:8 (protein)
chain: MSEIVVSKFGGTSVADFDAMNRSADIVLSDANVRLVVLSASAGITNLLVALAEGLEPGERFEKLDAIRNIQFAILERLRYPNVIREEIERLLENITVLAEAAALATSPALTDELVSHGELMSTLLFVEILRERDVQAQWFDVRKVMRTNDRFGRAEPDIAALAELAALQLLPRLNEGLVITQGFIGSENKGRTTTLGRGGSDYTAALLAEALHASRVDIWTDVPGIYTTDPRVVSAAKRIDEIAFAEAAEMATFGAKVLHPATLLPAVRSDIPVFVGSSKDPRAGGTLVCNKTENPPLFRALALRRNQTLLTLHSLNMLHSRGFLAEVFGILARHNISVDLITTSEVSVALTLDTTGSTSTGDTLLTQSLLMELSALCRVEVEEGLALVALIGNDLSKACGVGKEVFGVLEPFNIRMICYGASSHNLCFLVPGEDAEQVVQKLHSNLFE
Heat stability (AKIII [2]): 18% | Degree of desensitization of inhibition (AKIII [3]; AK activity in the presence of 100 mM of L-lysine compared with AK activity in the absence of L-lysine): 0% | Specific activity (AKIII [3]; AKIII, cell-free extract of GT3 transformants, 1 U=1 μmol/min): 0.0247 U/mg protein | Inhibition of AKIII by L-lysine (AKIII [3]; various concentrations of L-lysine, FIG. 6): strongly suffered inhibition by L-lysine
